# Where “and” joins values, the source holds several entries; their conditions need not be identical. Equal values may be shown once. Entries after “also recorded” stand apart in the source; their conditions may differ. Read-outs that look alike come from different tables or passages of the source.
# Tests used:
# [1] = target: T1, human SERT (Homo sapiens, UniProt P31645)
# [2] = target: T2, human NET (Homo sapiens, UniProt P23975)
# [3] = target: T3, human DAT (Homo sapiens, UniProt Q01959)
# Method: (§1) In brief, the cells were washed twice with Krebs–Ringer–HEPES buffer (KHB; composition: 25 mM HEPES·NaOH, pH 7.4, 120 mM NaCl, 5 mM KCl, 1.2 mM CaCl2, and 1.2 mM MgSO4 supplemented with 5 mM D-glucose). Then, the diluted reference and sample compounds were added and incubated for 5 min to allow for equilibration with the transporters. Subsequently, the tritiated substrates were added and the reaction was stopped after 1 min (SERT and DAT) and 3 min (NET), respectively. Cells were lysed with 1% SDS and the released radioactivity was quantified by liquid scintillation counting. All determinations were performed in duplicate or triplicate.
# (§2) The release of [^3H] labelled substrate was expressed as fractional rate (i.e., the radioactivity released within one fraction was expressed as a percentage of the total radioactivity present in the cells at the beginning of that fraction). Drug-induced release was calculated by subtracting the estimated basal release from total release during the first 8 min of drug exposure and is expressed as a percentage of radioactivity in the cell at the beginning of drug exposure. Data were normalized by using cpm values with no substance present (only solvent) as 100%. IC50 values were calculated using non-linear regression fits performed with Prism software (GraphPad 5.0, San Diego, CA, U.S.A.). Data transformed into Dixon plots were fitted by linear regression.
# [4] = target: T1, human SERT; remark: listed apart in the source
# Method: (§3) For release studies, HEK-SERT, HEK-NET, or HEK-DAT cells were grown overnight on round glass coverslips (5-mm diameter, 40,000 cells per coverslip) placed in a 96-well plate and preloaded with 0.4 μM [^3H]dopamine, 0.1 μM [^3H]MPP+, or 0.4 μM [^3H]5-HT for 20 min at 37 °C in a final volume of 0.1 mL/well. […] A washout period of 40 min established a stable baseline for efflux of radioactivity; thereafter, substances were added and the experiment was started with the collection of fractions (2 min). At the end of the experiment, cells were lysed in 1% SDS and the released radioactivity was quantified by liquid scintillation counting.
# (§4) The release of [^3H] labelled substrate was expressed as fractional rate (i.e., the radioactivity released within one fraction was expressed as a percentage of the total radioactivity present in the cells at the beginning of that fraction). Drug-induced release was calculated by subtracting the estimated basal release from total release during the first 8 min of drug exposure and is expressed as a percentage of radioactivity in the cell at the beginning of drug exposure. Data were normalized by using cpm values with no substance present (only solvent) as 100%.
# [5] = target: T2, human NET; remark: listed apart in the source
# Method: as §3, §4
# [6] = target: T3, human DAT; remark: listed apart in the source
# Method: as §3, §4
# [7] = target: T1, human SERT; test: cell-based
# [8] = target: T2, human NET; test: cell-based
# [9] = target: T3, human DAT; test: cell-based
# Method: as §1, §2
# [10] = stated without reference; cited from earlier work
# [11] = after levamisole administration; ref Hess et al., 2013; cited from earlier work
# [12] = in vivo; conditions: human, plasma, po, 50 mg
# [13] = ref Lin and Tsai, 2006; cited from earlier work
# [14] = IC50 uptake inhibition NET in the absence of cocaine
# [15] = IC50 uptake inhibition DAT in the absence of cocaine, allosteric interaction experiment, dopamine uptake
# [16] = IC50 uptake inhibition DAT, HEK293 stably expressing human DAT, substrate [3H]dopamine 0.1 μM, 5 min preincubation
# T1 sequence (P31645 whole entry): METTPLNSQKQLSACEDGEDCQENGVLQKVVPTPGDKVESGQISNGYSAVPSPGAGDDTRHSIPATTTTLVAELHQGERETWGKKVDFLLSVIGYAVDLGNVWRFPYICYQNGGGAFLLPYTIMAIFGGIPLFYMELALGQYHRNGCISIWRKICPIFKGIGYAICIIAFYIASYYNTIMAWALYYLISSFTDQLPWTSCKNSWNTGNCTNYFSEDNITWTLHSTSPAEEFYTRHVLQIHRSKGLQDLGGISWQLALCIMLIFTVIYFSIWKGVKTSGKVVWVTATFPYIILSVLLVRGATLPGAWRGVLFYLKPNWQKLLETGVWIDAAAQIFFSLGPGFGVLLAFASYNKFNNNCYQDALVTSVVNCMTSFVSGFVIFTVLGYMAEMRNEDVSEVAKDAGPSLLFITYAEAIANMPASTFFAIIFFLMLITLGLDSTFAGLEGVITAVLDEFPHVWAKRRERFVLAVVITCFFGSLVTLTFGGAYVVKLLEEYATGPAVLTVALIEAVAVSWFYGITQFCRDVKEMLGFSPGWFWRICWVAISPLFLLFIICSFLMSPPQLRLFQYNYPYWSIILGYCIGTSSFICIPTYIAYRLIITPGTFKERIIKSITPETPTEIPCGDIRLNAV
# T2 sequence (P23975 whole entry): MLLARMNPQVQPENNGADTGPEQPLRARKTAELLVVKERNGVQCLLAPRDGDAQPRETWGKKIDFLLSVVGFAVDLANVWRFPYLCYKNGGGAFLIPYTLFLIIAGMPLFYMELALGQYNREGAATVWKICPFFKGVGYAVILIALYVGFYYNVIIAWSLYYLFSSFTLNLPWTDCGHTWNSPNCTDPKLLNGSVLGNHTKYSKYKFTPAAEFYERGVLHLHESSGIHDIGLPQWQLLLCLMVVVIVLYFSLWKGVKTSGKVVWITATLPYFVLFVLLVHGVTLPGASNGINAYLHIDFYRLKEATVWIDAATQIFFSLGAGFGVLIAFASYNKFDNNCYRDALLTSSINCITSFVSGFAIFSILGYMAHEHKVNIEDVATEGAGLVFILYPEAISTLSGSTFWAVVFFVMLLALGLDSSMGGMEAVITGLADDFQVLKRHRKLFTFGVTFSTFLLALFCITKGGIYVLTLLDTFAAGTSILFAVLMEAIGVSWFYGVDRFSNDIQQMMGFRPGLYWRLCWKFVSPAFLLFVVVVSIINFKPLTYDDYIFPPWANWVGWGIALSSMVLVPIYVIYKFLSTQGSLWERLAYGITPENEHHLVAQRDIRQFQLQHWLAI
# T3 sequence (Q01959 whole entry): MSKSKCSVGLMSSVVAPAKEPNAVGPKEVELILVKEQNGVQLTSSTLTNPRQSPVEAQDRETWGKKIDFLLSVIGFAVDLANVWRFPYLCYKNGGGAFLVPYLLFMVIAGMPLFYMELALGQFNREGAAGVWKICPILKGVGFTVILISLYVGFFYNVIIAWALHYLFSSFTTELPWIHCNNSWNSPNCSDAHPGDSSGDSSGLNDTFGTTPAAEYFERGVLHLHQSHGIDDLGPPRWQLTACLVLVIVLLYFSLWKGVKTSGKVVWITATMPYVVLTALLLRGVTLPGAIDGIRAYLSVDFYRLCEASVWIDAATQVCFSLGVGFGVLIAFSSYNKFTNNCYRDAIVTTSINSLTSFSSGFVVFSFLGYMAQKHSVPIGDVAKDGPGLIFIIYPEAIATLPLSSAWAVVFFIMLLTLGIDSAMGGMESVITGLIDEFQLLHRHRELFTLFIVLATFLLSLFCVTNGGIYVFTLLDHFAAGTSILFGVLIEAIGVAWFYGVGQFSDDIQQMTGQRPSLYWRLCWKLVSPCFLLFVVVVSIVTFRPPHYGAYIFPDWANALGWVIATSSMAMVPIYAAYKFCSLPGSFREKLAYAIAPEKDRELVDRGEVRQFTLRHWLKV
compound,measurement,setting,value
NC1=NCC(c2ccccc2)O1 (stereo not drawn) [aminorex],Dixon plot: binding relative to cocaine at SERT,[1],mutually exclusive manner
same,SERT inhibited at higher concentrations than NET and DAT,[1],20 fold
same,SERT inhibitory effect compared to cocaine,[1],more than 10 fold
same,Dixon plot: binding relative to cocaine at NET,[2],mutually exclusive manner
same,Dixon plot: binding relative to cocaine at DAT,[3]; uptake inhibition with one inhibitor varied at fixed concentration of the other,mutually exclusive manner
same,substrate efflux SERT,[4],strong release; also recorded: significant substrate release
same,substrate efflux NET,"[5]; 3 or 10 μM aminorex, presence and absence of 10 μM monensin",slight increase; also recorded: only a slight response
same,substrate efflux DAT,"[6]; 50 μM aminorex, presence and absence of 10 μM monensin",no releasing effect; also recorded: completely absent
same,IC50,[7]; IC50 uptake inhibition SERT,18.4 ± 1.12 µM
same,IC50,[7]; IC50 uptake inhibition SERT in the absence of cocaine,26.3 ± 1.03 µM
same,IC50,[8]; IC50 uptake inhibition NET,0.33 µM and < 1 µM
same,IC50,[8]; [14],1.97 ± 1.2 µM
same,IC50,[9]; [15],0.71 ± 1.05 µM
same,IC50,[9]; [16],0.85 µM and 0.855 µM and < 1 µM
same,pKa,[10],7.4
same,time aminorex could be detected in human urine,[11],up to 54 h
c1ccc([C@H]2CN3CCSC3=N2)cc1 [levamisole],less potent than cocaine in blocking norepinephrine uptake,[2],100 fold
same,less potent than cocaine in blocking dopamine uptake,[3]; relative to cocaine,300 fold
same,substrate efflux NET,"[5]; 100 μM levamisole, absence of monensin, [3H]MPP+ preloaded",slight increase; also recorded: slight increased substrate efflux
same,substrate efflux DAT,"[6]; 100 μM levamisole, absence of monensin, [3H]dopamine preloaded",no efflux was observed; also recorded: could not detect substrate efflux
same,Cmax,[12],~1500 nM
same,IC50,[8]; IC50 uptake inhibition NET,74.5 µM
same,IC50,[8]; [14],521 ± 2.3 µM
same,IC50,[9]; [15],476 ± 1.54 µM
same,IC50,[9]; [16],209.9 ± 1.31 µM
same,pKa,[10],7
same,blood–brain barrier permeation,[13],readily permeates the blood–brain barrier
